Reference: patent US20130244879A1, “USE OF LIPO-CHITOOLIGOSACCHARIDES TO INITIATE EARLY FLOWERING AND FRUIT DEVELOPMENT IN PLANTS AND RELATED METHODS AND COMPOSITIONS” (NOVOZYMES BIOLOGICALS HOLDING A/S, priority 2003, published 2013)

Assays:
hot pepper = assay: Experiment 17: effect of LCO on hot pepper flowering and fruiting; assay type: in vivo; settings: for increased early flowers over control: at 5 weeks; for increased number of early fruits over control: in 5 weeks
Protocol: 30-day old seedlings were transplanted into 5″ pots and 20 days later (20 DAT) plants received the first LCO spray at 2 ml/plant (50 ng/plant). The 2nd spray was conducted 3 weeks (41 DAT) after the first. Data was collected 5 weeks (55 DAT) after the first LCO application. […]

Marigolds = assay: Experiment 12: LCO application on marigolds; assay type: in vivo, Marigold; settings: best treatments
Protocol: Marigolds were planted in 32-cell flat and LCO was applied foliarly to plants 4 weeks after sowing (4 flats/treatment, 1 ml/plant applied containing various levels of LCO). Data collection started from the first flower appearing.

pepper (cv. Camelot) = assay: Experiment 7: foliar application of LCO on pepper; assay type: in vivo
Protocol: 13 pepper seedlings (cv. Camelot, 6-leaf stage) were transplanted in 2 rows per plot (3.5×2.5M^2). The rows were covered with 65 cm width black plastic mulch one week before transplanting. Fertilizer (10-52-10) solution of 250 ppm was applied into the planting hole through the mulch when transplanting (approx. 250 ml per plant). The drip irrigation system was set to twice a week and 4 hours each time, depending on the soil moisture. Plants were sprayed with LCO 14 days after transplanting (5 ml/plant) and 27 days after transplanting (50 ml/plant).

Tomato [1] = assay: Experiment 16: LCO application on fruit number and weight at end of season; assay type: in vivo; settings: LCO applied once at 50 ng, 20-40 days after transplantation
From the text: Tomato seedlings (6 leaf-stage) were transplanted. The plants were watered on the day they were transplanted and whenever the soil was very dry during the season. Fertilizer (20-20-20) was applied at 250 kg/ha to the tomato field before transplantation. All tomato plants were supported with sticks when they were heavily loaded with fruit. Fruit yield was finally cumulated at the end of the season 115 days after transplant.

Tomato [2] = assay: Experiment 6: foliar application of LCO at variable growth stages, field tomato; assay type: in vivo; parameters: Fruit # % vs. control / % of weight vs. control: concentration or dose not given beside the values
From the text: Tomato seedlings (6-leaf stage) were transplanted in farmland. The plants were watered on the day that they were transplanted and whenever the soil was very dry during the season. Fertilizer (20-20-20) was applied at 250 kg/ha to the tomato field before transplantation. All tomato plants were supported by sticks when they were heavily loaded with fruit. Fruit yield (in the table) was finally cumulated at the end of the season.

grain corn (cv. DK376) = assay: Experiment 9: effect of LCO on grain corn yield; assay type: in vivo
From the text: Fertilizer (36-12-18) was applied to the corn field at a rate of 500 kg/ha before seeding. A machine planter was employed to plant the grain (cv. DK376, HU2650, Fludioxnil coated). To protect corn ears from bird damage, grain corn ears in the middle two rows were covered with plastic nets after silking. LCO was applied to corn plants at a rate of 200 L/ha for the first application 40 days after planting and at 400 L/ha for the second application 58 days after planting. The two protected middle rows of plants were harvested by a combine 152 days after planting. […] The total grain yield increased for all but the 10^−8M double application.

[3] = LCO applied 10 + 20 + 30 + 40 + 50 DATP
[4] = LCO applied 10 + 20 + 30 + 40 DATP

Lipo-chitooligosaccharides [LCO] was tested, and the “increased early flowers over control” value (hot pepper; double applications) was ≤ 40%, the “increased number of early fruits over control” value (hot pepper; double applications) was ≤ 284% and the “increased early flowers over control” value (hot pepper; single application) was “up to 5%”. For the same substance, the “increased number of early fruits over control” value (hot pepper; single application) was “up to 159%”, the advanced flowering (Marigolds) was 2 days and the “increase in number of flowers at 25 days” value (Marigolds) was 8%. For the same substance, the “First 4 wk yield, Fruit/plant” value (pepper (cv. Camelot); 14 ng/plant) was 5.79ab Fruit/plant, the “First 4 wk yield, gram/plant” value (pepper (cv. Camelot); 14 ng/plant) was 784.91ab gram/plant and the “First 4 wk yield, Fruit/plant” value (pepper (cv. Camelot); 50 ng/plant) was 5.83ab Fruit/plant. For the same substance, the “First 4 wk yield, gram/plant” value (pepper (cv. Camelot); 50 ng/plant) was 833.79ab gram/plant, the “First 4 wk yield, Fruit/plant” value (pepper (cv. Camelot); 75 ng/plant) was 5.77ab Fruit/plant and the “First 4 wk yield, gram/plant” value (pepper (cv. Camelot); 75 ng/plant) was 835.26ab gram/plant. The “First 4 wk yield, Fruit/plant” value (pepper (cv. Camelot); 100 ng/plant) was 4.87b Fruit/plant, the “First 4 wk yield, gram/plant” value (pepper (cv. Camelot); 100 ng/plant) was 694.48b gram/plant and the “First 4 wk yield, Fruit/plant” value (pepper (cv. Camelot); 141 ng/plant) was 6.48a Fruit/plant. The “First 4 wk yield, gram/plant” value (pepper (cv. Camelot); 141 ng/plant) was 934.83a gram/plant, the “First 4 wk yield, Fruit/plant” value (pepper (cv. Camelot); 282 ng/plant) was 5.02ab Fruit/plant and the “First 4 wk yield, gram/plant” value (pepper (cv. Camelot); 282 ng/plant) was 702.87b gram/plant. The best dose (pepper (cv. Camelot); 5 ml of 2×10^−8M) was 141 ng/plant, the “increase of fruit number in the early stages” value (pepper (cv. Camelot); foliar application) was “approximately 1 fruit per plant” and the increased fruit number (Tomato [1]) was “up to 33%”. For the same substance, the “% of weight vs. control” value (Tomato [2]; [3]) was 27.8%, the “Average Weight (g/fruit)” value (Tomato [2]; [3]) was 126.8 g/fruit and the “Fruit # % vs. control” value (Tomato [2]; [3]) was 38.41%. For the same substance, the “Fruit on 24 plants” value (Tomato [2]; [3]) was 1373a, the “Weight (kg) per 24 plants” value (Tomato [2]; [3]) was 174.07a kg and the “% of weight vs. control” value (Tomato [2]; [4]) was 12.0%. For the same substance, the “Average Weight (g/fruit)” value (Tomato [2]; [4]) was 128.0 g/fruit, the “Fruit # % vs. control” value (Tomato [2]; [4]) was 20.06% and the “Fruit on 24 plants” value (Tomato [2]; [4]) was 1191abc. For the same substance, the “Weight (kg) per 24 plants” value (Tomato [2]; [4]) was 152.50ab kg, the “% of weight vs. control” value (Tomato [2]; LCO applied 10 + 20 + 30 DATP) was 18.9% and the “Average Weight (g/fruit)” value (Tomato [2]; LCO applied 10 + 20 + 30 DATP) was 126.3 g/fruit. The “Fruit # % vs. control” value (Tomato [2]; LCO applied 10 + 20 + 30 DATP) was 29.23%, the “Fruit on 24 plants” value (Tomato [2]; LCO applied 10 + 20 + 30 DATP) was 1282ab and the “Weight (kg) per 24 plants” value (Tomato [2]; LCO applied 10 + 20 + 30 DATP) was 161.89ab kg. For the same substance, the “% of weight vs. control” value (Tomato [2]; LCO applied 10 + 20 DATP) was 12.7%, the “Average Weight (g/fruit)” value (Tomato [2]; LCO applied 10 + 20 DATP) was 136.4 g/fruit and the “Fruit # % vs. control” value (Tomato [2]; LCO applied 10 + 20 DATP) was 13.41%. For the same substance, the “Fruit on 24 plants” value (Tomato [2]; LCO applied 10 + 20 DATP) was 1125bc, the “Weight (kg) per 24 plants” value (Tomato [2]; LCO applied 10 + 20 DATP) was 153.43ab kg and the “% of weight vs. control” value (Tomato [2]; LCO applied 10 DATP (7/4)) was 10.8%. For the same substance, the “Average Weight (g/fruit)” value (Tomato [2]; LCO applied 10 DATP (7/4)) was 118.2 g/fruit, the “Fruit # % vs. control” value (Tomato [2]; LCO applied 10 DATP (7/4)) was 28.63% and the “Fruit on 24 plants” value (Tomato [2]; LCO applied 10 DATP (7/4)) was 1276ab. The “Weight (kg) per 24 plants” value (Tomato [2]; LCO applied 10 DATP (7/4)) was 150.88ab kg, the “% of weight vs. control” value (Tomato [2]; LCO applied 20 DATP (7/15)) was 20.3% and the “Average Weight (g/fruit)” value (Tomato [2]; LCO applied 20 DATP (7/15)) was 130.0 g/fruit. The “Fruit # % vs. control” value (Tomato [2]; LCO applied 20 DATP (7/15)) was 27.02%, the “Fruit on 24 plants” value (Tomato [2]; LCO applied 20 DATP (7/15)) was 1260ab and the “Weight (kg) per 24 plants” value (Tomato [2]; LCO applied 20 DATP (7/15)) was 163.78ab kg. The “% of weight vs. control” value (Tomato [2]; LCO applied 30 DATP (7/25)) was 17.6%, the “Average Weight (g/fruit)” value (Tomato [2]; LCO applied 30 DATP (7/25)) was 133.5 g/fruit and the “Fruit # % vs. control” value (Tomato [2]; LCO applied 30 DATP (7/25)) was 20.87%. For the same substance, the “Fruit on 24 plants” value (Tomato [2]; LCO applied 30 DATP (7/25)) was 1199abc, the “Weight (kg) per 24 plants” value (Tomato [2]; LCO applied 30 DATP (7/25)) was 160.11ab kg and the “% of weight vs. control” value (Tomato [2]; LCO applied 40 DATP (8/8)) was 14.5%. The “Average Weight (g/fruit)” value (Tomato [2]; LCO applied 40 DATP (8/8)) was 118.3 g/fruit, the “Fruit # % vs. control” value (Tomato [2]; LCO applied 40 DATP (8/8)) was 32.86% and the “Fruit on 24 plants” value (Tomato [2]; LCO applied 40 DATP (8/8)) was 1318ab. The “Weight (kg) per 24 plants” value (Tomato [2]; LCO applied 40 DATP (8/8)) was 155.89ab kg, the “% of weight vs. control” value (Tomato [2]; LCO applied 50 DATP (8/18)) was 13.6% and the “Average Weight (g/fruit)” value (Tomato [2]; LCO applied 50 DATP (8/18)) was 138.7 g/fruit. For the same substance, the “Fruit # % vs. control” value (Tomato [2]; LCO applied 50 DATP (8/18)) was 12.40%, the “Fruit on 24 plants” value (Tomato [2]; LCO applied 50 DATP (8/18)) was 1115bc and the “Weight (kg) per 24 plants” value (Tomato [2]; LCO applied 50 DATP (8/18)) was 154.62ab kg. For the same substance, the “increased fruit number compared to untreated control” value (Tomato [2]; best of 9 treatments) was “up to 38.4%”, the “increased total fruit weight compared to untreated control” value (Tomato [2]; best of 9 treatments) was “up to 27.8%” and the “Dry Yield (kg/2 rows)” value (grain corn (cv. DK376); 10^−7M once) was 3.44 kg/2 rows. The “Dry yield (kg/ha)” value (grain corn (cv. DK376); 10^−7M once) was 5730.6 kg/ha, the Ears/2 rows (grain corn (cv. DK376); 10^−7M once) was 37.25ab and the “Fresh Yield (kg/2 rows)” value (grain corn (cv. DK376); 10^−7M once) was 4.40 kg/2 rows. For the same substance, the “Fresh Yield (kg/ha)” value (grain corn (cv. DK376); 10^−7M once) was 7333.3 kg/ha, the “Dry Yield (kg/2 rows)” value (grain corn (cv. DK376); 10^−7M twice) was 3.96 kg/2 rows and the “Dry yield (kg/ha)” value (grain corn (cv. DK376); 10^−7M twice) was 6606.5 kg/ha. For the same substance, the Ears/2 rows (grain corn (cv. DK376); 10^−7M twice) was 40.00a, the “Fresh Yield (kg/2 rows)” value (grain corn (cv. DK376); 10^−7M twice) was 5.03 kg/2 rows and the “Fresh Yield (kg/ha)” value (grain corn (cv. DK376); 10^−7M twice) was 8383.3 kg/ha. The “Dry Yield (kg/2 rows)” value (grain corn (cv. DK376); 10^−8M once) was 3.62 kg/2 rows, the “Dry yield (kg/ha)” value (grain corn (cv. DK376); 10^−8M once) was 6040.4 kg/ha and the Ears/2 rows (grain corn (cv. DK376); 10^−8M once) was 37.00ab. The “Fresh Yield (kg/2 rows)” value (grain corn (cv. DK376); 10^−8M once) was 4.57 kg/2 rows, the “Fresh Yield (kg/ha)” value (grain corn (cv. DK376); 10^−8M once) was 7616.7 kg/ha and the “Dry Yield (kg/2 rows)” value (grain corn (cv. DK376); 10^−8M twice) was 3.23 kg/2 rows. For the same substance, the “Dry yield (kg/ha)” value (grain corn (cv. DK376); 10^−8M twice) was 5387.1 kg/ha, the Ears/2 rows (grain corn (cv. DK376); 10^−8M twice) was 32.25bc and the “Fresh Yield (kg/2 rows)” value (grain corn (cv. DK376); 10^−8M twice) was 4.12 kg/2 rows. For the same substance, the “Fresh Yield (kg/ha)” value (grain corn (cv. DK376); 10^−8M twice) was 6866.7 kg/ha, the “Dry Yield (kg/2 rows)” value (grain corn (cv. DK376); 10^−9M once) was 3.77 kg/2 rows and the “Dry yield (kg/ha)” value (grain corn (cv. DK376); 10^−9M once) was 6275.6 kg/ha. The Ears/2 rows (grain corn (cv. DK376); 10^−9M once) was 39.00ab, the “Fresh Yield (kg/2 rows)” value (grain corn (cv. DK376); 10^−9M once) was 4.75 kg/2 rows and the “Fresh Yield (kg/ha)” value (grain corn (cv. DK376); 10^−9M once) was 7916.7 kg/ha. For the same substance, the “Dry Yield (kg/2 rows)” value (grain corn (cv. DK376); 10^−9M twice) was 3.57 kg/2 rows, the “Dry yield (kg/ha)” value (grain corn (cv. DK376); 10^−9M twice) was 5953.5 kg/ha and the Ears/2 rows (grain corn (cv. DK376); 10^−9M twice) was 37.25ab. The “Fresh Yield (kg/2 rows)” value (grain corn (cv. DK376); 10^−9M twice) was 4.55 kg/2 rows, the “Fresh Yield (kg/ha)” value (grain corn (cv. DK376); 10^−9M twice) was 7583.3 kg/ha and the “Ear number over untreated control” value (grain corn (cv. DK376); all treatments except the 10^−8M double application) was “significantly increased”.
